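In this assay, cells in 96-well plates receive the compound at five concentrations for 48 hours. Endpoints are linearly interpolated between the surrounding concentrations. Abbreviation: GI50, concentration required for 50% inhibition of growth.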 Activity calls are given as the source filed them. No stated cut-off is given here; in the data, active = GI50 up to about 1.1 µM and inactive = higher.
Tests used:
Assay in all cases: growth of human tumour cells (NCI), 48 h
A549 = system: A549
ACHN = system: ACHN
CAKI-1 = system: CAKI-1
CCRF-CEM = system: CCRF-CEM
HT-29 = system: HT-29
KM12 = system: KM12
Malme-3M = system: Malme-3M
NCI-H23 = system: NCI-H23
NCI-H522 = system: NCI-H522
OVCAR-4 = system: OVCAR-4
OVCAR-8 = system: OVCAR-8
SF-268 = system: SF-268
SK-MEL-5 = system: SK-MEL-5
SN12C = system: SN12C
SR = system: SR
IGROV-1 = system: IGROV-1
RPMI-8226 = system: RPMI-8226
UACC-62 = system: UACC-62

Row | SMILES | GI50 (A549) | GI50 (ACHN) | GI50 (CAKI-1) | GI50 (CCRF-CEM) | GI50 (HT-29) | GI50 (KM12) | GI50 (Malme-3M) | GI50 (NCI-H23) | GI50 (NCI-H522) | GI50 (OVCAR-4) | GI50 (OVCAR-8) | GI50 (SF-268) | GI50 (SK-MEL-5) | GI50 (SN12C) | GI50 (SR) | GI50 (IGROV-1) | GI50 (RPMI-8226) | GI50 (UACC-62)
1 | CCCC12Cc3c(OC)ccc(OC)c3CC(Cc3c(OC)ccc(OC)c31)C2=O (configuration not stated) | > 100 µM (inactive) | > 100 µM (inactive) | 9.64 µM (inactive) | > 100 µM (inactive) | > 100 µM (inactive) | > 100 µM (inactive) | 69.3 µM (inactive) | > 100 µM (inactive) | 81.5 µM (inactive) | 18.8 µM (inactive) | > 100 µM (inactive) | > 100 µM (inactive) | 73.5 µM (inactive) | > 100 µM (inactive) | 7.29 µM (inactive) |  |  | 
2 | COC1(OC)C2(Cl)C(Cl)=C(Cl)C1(Cl)C1C2C2CC1(C(=O)O)c1ccccc12 (configuration not stated) | 28.1 µM (inactive) | 35.7 µM (inactive) | 31.3 µM (inactive) | 4.74 µM (inactive) | 30.3 µM (inactive) |  | 16 µM (inactive) | 14.3 µM (inactive) |  | 15 µM (inactive) | 27.4 µM (inactive) | 27.6 µM (inactive) | 15.9 µM (inactive) | 20.5 µM (inactive) | 9.55 µM (inactive) | 28.8 µM (inactive) | 17 µM (inactive) | 16.5 µM (inactive)
3 | CCCCc1c2c(nc3c1CCc1cc4cc5c(nc4nc1-3)-c1nc3c(c(CCCC)c1CC5)CCCC3)CCCC2 | 20.5 µM (inactive) | 23.8 µM (inactive) |  | 31.7 µM (inactive) | 7.28 µM (inactive) | 48.1 µM (inactive) | 38.6 µM (inactive) | 49.5 µM (inactive) | 43.7 µM (inactive) |  | 39.6 µM (inactive) | 39.3 µM (inactive) |  | 56.4 µM (inactive) | 47.4 µM (inactive) | 38.5 µM (inactive) | 27 µM (inactive) | 19.6 µM (inactive)
4 | COc1cc(Nc2nc3ccc(C(F)(F)F)cc3nc2-c2ccccc2)cc(OC)c1OC | 23.8 µM (inactive) | 9.1 µM (inactive) | 18.8 µM (inactive) | 8.11 µM (inactive) | 1.98 µM (inactive) | 9.38 µM (inactive) | 37 µM (inactive) | 67.5 µM (inactive) | 27.8 µM (inactive) | 51.4 µM (inactive) | 28.2 µM (inactive) | 5.75 µM (inactive) | 16.4 µM (inactive) | 18.7 µM (inactive) | 8.3 µM (inactive) | > 100 µM (inactive) |  | 36.2 µM (inactive)
5 | C=C1c2[nH]c3c([N+](=O)[O-])c(OC)ccc3c2CCN1C(C)=O | > 100 µM (inactive) | > 100 µM (inactive) | 21.6 µM (inactive) | > 100 µM (inactive) | > 100 µM (inactive) | > 100 µM (inactive) |  | > 100 µM (inactive) | > 100 µM (inactive) | > 100 µM (inactive) | > 100 µM (inactive) | 28.7 µM (inactive) |  | > 100 µM (inactive) | > 100 µM (inactive) | > 100 µM (inactive) | > 100 µM (inactive) | 61.9 µM (inactive)
6 | COc1ccc(C2=NN(C(=O)COc3ccc(Cl)cc3)C(O)(c3ccc(Cl)cc3)C2)cc1 (configuration not stated) | > 100 µM (inactive) | > 100 µM (inactive) | > 100 µM (inactive) |  | > 100 µM (inactive) | > 100 µM (inactive) | > 100 µM (inactive) | 36.1 µM (inactive) | > 100 µM (inactive) | > 100 µM (inactive) | > 100 µM (inactive) | > 100 µM (inactive) |  | > 100 µM (inactive) |  | > 100 µM (inactive) | > 100 µM (inactive) | > 100 µM (inactive)
7 | COc1ccc(/C=N/Nc2nc(-c3cc4oc(=O)n(C)c4cc3Cl)cs2)cc1OC | 4.35 µM (inactive) | 7.66 µM (inactive) | 79.3 µM (inactive) | 91 µM (inactive) | 9.33 µM (inactive) | 18.8 µM (inactive) | 10.5 µM (inactive) | 6.15 µM (inactive) |  | 11.2 µM (inactive) | 36.6 µM (inactive) | 35.3 µM (inactive) | 2.36 µM (inactive) | 17.9 µM (inactive) | 77.4 µM (inactive) | 14 µM (inactive) | 8.26 µM (inactive) | 16.8 µM (inactive)
8 | COc1ccc2c(c1OC)C1=C(C2=O)c2cc3c(cc2CCN1)OCO3 | 47.2 µM (inactive) | 3.42 µM (inactive) | 27.3 µM (inactive) | 26.1 µM (inactive) | 18.9 µM (inactive) | 20.4 µM (inactive) | 69.3 µM (inactive) | 46.5 µM (inactive) |  | 4.35 µM (inactive) | 39.9 µM (inactive) | 41.9 µM (inactive) | 33.1 µM (inactive) | 6.76 µM (inactive) | 21 µM (inactive) | 68.1 µM (inactive) | 23.1 µM (inactive) | 35.4 µM (inactive)
9 | Cc1ccc(S(=O)(=O)N/N=C(/CC(=O)c2c(C)[n+]([O-])c3ccccc3[n+]2[O-])C(=O)Nc2ccccc2C)cc1 | > 100 µM (inactive) | > 100 µM (inactive) | > 100 µM (inactive) |  | > 100 µM (inactive) | > 100 µM (inactive) | > 100 µM (inactive) | > 100 µM (inactive) | > 100 µM (inactive) | > 100 µM (inactive) |  | > 100 µM (inactive) |  | > 100 µM (inactive) | 35.5 µM (inactive) | > 100 µM (inactive) | > 100 µM (inactive) | > 100 µM (inactive)
10 | O=C1Cc2c([nH]c3ccccc23)-c2ccccc2N1 [PAULLONE] | 36.4 µM (inactive) | 36.6 µM (inactive) | 42.4 µM (inactive) | 22.2 µM (inactive) | 26 µM (inactive) | 18.3 µM (inactive) | 61.1 µM (inactive) | 16 µM (inactive) | 17.3 µM (inactive) | 43.1 µM (inactive) | 40.1 µM (inactive) | 45.2 µM (inactive) | 22.8 µM (inactive) | 38.2 µM (inactive) |  | 27.2 µM (inactive) | 20.2 µM (inactive) | 
11 | Cc1cccc2c1NC(c1c(C)[nH]c3ccccc13)C2 (configuration not stated) | > 100 µM (inactive) | 94 µM (inactive) |  | 57.7 µM (inactive) | > 100 µM (inactive) | 62.4 µM (inactive) | > 100 µM (inactive) | > 100 µM (inactive) | > 100 µM (inactive) |  | > 100 µM (inactive) | > 100 µM (inactive) | > 100 µM (inactive) | > 100 µM (inactive) | > 100 µM (inactive) | 33.4 µM (inactive) | > 100 µM (inactive) | 78.2 µM (inactive)
12 | CC(C)(C)C(=O)CC(=O)C(C)(C)C.CC(C)(C)C(=O)CC(=O)C(C)(C)C.[SiH4] | 2.95 µM (inactive) | 0.689 µM (active) | 0.579 µM (active) | 1.79 µM (inactive) | 0.475 µM (active) | 0.767 µM (active) | 6.12 µM (inactive) | 1.04 µM (active) | 0.573 µM (active) | 0.612 µM (active) | 2.92 µM (inactive) | 1.76 µM (inactive) | 2.1 µM (inactive) | 1.18 µM (inactive) |  | 1.47 µM (inactive) | 0.299 µM (active) | 2.99 µM (inactive)
